Non-standard residues stand in square brackets, D forms with d. Residues, ends and D or L forms follow the SMILES beside them.
Tests used:
Proteinase K = Proteinase K (Parengyodontium album, UniProt P06873); assay: Incubation of peptide nanotubes with Proteinase K, electron microscopy examination; format: in vitro ADME; conditions: one hour of incubation with 0.02 mg/ml of Proteinase K; compared with before incubation
From the text: For other applications, such as the assembly of nanotube based biosensors or hollow tubing of nanofluidic circuits, enzymatically stable nanotubes are desired. To assemble such stable tubes, proteolytically stable building blocks based on the D-amino-acids analogue of the peptide, NH2-D-Phe-D-Phe-COOH (SEQ ID NO: 8) were used. This peptide formed nanotubes with the same structural features as the corresponding L-amino-acids peptide (FIG. 12a).

[1] = Dissolving lyophilized peptide in 1,1,1,3,3,3-hexafluoro-2-propanol; format: physicochemical; conditions: 100 mg/ml
Experimental: Peptides (NH2-Phe-Phe-COOH, SEQ ID NO: 1) were purchased from Bachem (Budendorf, Switzerland). Freshly prepared stock solution was prepared by dissolving lyophilized form of the peptide in 1,1,1,3,3,3,-Hexafluoro-2-propanol at a concentration of 100 mg/ml. To avoid any pre-aggregation, fresh stock solution were prepared for each experiment.
Very concentrated peptide solution (i.e., 100 mg/ml) were prepared by dissolving the lyophilized peptide in 1,1,1,3,3,3 hexafluoro-2-propanol. […] Assembly into supramolecular structures was determined within minutes at the μM range, using dynamic light scattering analysis (data not shown).

Sequence of Proteinase K (P06873 106-384): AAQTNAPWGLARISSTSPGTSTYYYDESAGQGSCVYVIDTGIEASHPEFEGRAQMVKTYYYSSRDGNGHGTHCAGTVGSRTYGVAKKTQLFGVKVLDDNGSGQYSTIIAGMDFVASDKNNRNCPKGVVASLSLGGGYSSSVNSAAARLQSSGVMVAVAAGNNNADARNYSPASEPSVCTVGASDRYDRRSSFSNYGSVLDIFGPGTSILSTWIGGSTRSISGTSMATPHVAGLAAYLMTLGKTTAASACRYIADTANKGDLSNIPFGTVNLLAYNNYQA

SMILES	tubular structures observed by electron microscopy after proteolysis (Proteinase K)	solubility in the organic solvent [1]
N[C@H](Cc1ccccc1)C(=O)N[C@H](Cc1ccccc1)C(=O)O [D-Phe-D-Phe, NH2-D-Phe-D-Phe-COOH] (H-[dF]-[dF]-OH)	no significant variation	
N[C@@H](Cc1ccccc1)C(=O)N[C@@H](Cc1ccccc1)C(=O)O [NH2-Phe-Phe-COOH] (H-Phe-Phe-OH)	no tubular structures were observed	highly soluble

— US8927689B2, “Peptide nanostructures and methods of generating and using the same” (Ramot at Tel-Aviv University Ltd., priority 2002, dated 2015)
